Assay results: US8153633B2, “Phthalazine compounds, compositions and methods of use” (Amgen Inc., priority 2007, dated 2012)

What was measured:
[1] = tested on: medulloblastomas from Ptch+/−p53−/− mice; assay: Mouse medulloblastoma allograft model, antitumor activity in vivo; conditions: 10 mg/kg, one dose per day, after 6 days of treatment; tumors of average size 200 mm^3 at start
Procedure: Briefly, medulloblastomas from Ptch+/−p53−/− mice were subcutaneously implanted into immunocompromised mice, and subsequent passages of these tumor allografts were used for compound testing. For compound studies, animals bearing tumors with an average size of 200 mm^3 were treated with vehicle or 10 mg/kg compound 23 on a schedule of one dose per day for a total of 6 days.

[2] = tested on: Gli1 expression (Smoothened signaling); assay: Gli1 expression in mouse skin after depilation and oral compound dosing (quantitative PCR relative to RGS); assay type: in vivo; conditions: five days after depilation, six hours after administration
Procedure: Paladini et al. (2005) J Invest Dermatol 125:638-646. For this work, the mice were deplilated using wax strips (Sally Hansen, Del Laboratories, Inc, Uniondale, N.Y.). Five days after depilation, mice were dosed orally with compound or vehicle. Six hours after compound administration, animals were euthanized and skin samples were collected. RNA was purified from the skin samples using a mirVana miRNA Isolation kit (Ambion, Austin, Tex.). cDNA was prepared from the RNA, and Gli1 expression levels were determined by real-time, quantitative PCR relative to the RGS reference gene.

| SMILES | reduction in tumor size relative to vehicle control [1] [%] | [Gli1/RGS ratio compound]/[Gli1/RGS ratio vehicle] ([2]; 50 mg/kg oral) | [Gli1/RGS ratio compound]/[Gli1/RGS ratio vehicle] ([2]; 100 mg/kg oral) |
| --- | --- | --- | --- |
| C[C@@H]1CN(C(=O)c2ccccc2)CCN1c1nnc(-c2ccc(C(F)(F)F)cc2)c2ccccc12 [Compound 23, (R)-(3-methyl-4-(4-(4-(trifluoromethyl)-phenyl)-phthalazin-1-yl)piperazin-1-yl)(phenyl)-methanone] | > 99 | 0.33 | – |
| C[C@H]1CN(c2nnc(-c3ccccc3)c3ccccc23)CCN1C(=O)c1ccccc1 [Compound 5, (S)-(2-methyl-4-(4-phenylphthalazin-1-yl)piperazin-1-yl)(phenyl)-methanone] | – | – | 0.41 |
